In BindingDB's records for doi:10.1016/j.bmc.2006.01.067 (Johnson & Johnson Pharmaceutical, 2006):

These compounds were tested against T1, Integrin alpha-4/beta-7 (Homo sapiens, UniProt P13612+P26010) (assay: K562 Cell Adhesion Assay (alpha4beta7 Mediated Adhesion/MAdCAM-1)). Details: pH 7.4; 23 °C.
T1 sequence (P13612 whole entry): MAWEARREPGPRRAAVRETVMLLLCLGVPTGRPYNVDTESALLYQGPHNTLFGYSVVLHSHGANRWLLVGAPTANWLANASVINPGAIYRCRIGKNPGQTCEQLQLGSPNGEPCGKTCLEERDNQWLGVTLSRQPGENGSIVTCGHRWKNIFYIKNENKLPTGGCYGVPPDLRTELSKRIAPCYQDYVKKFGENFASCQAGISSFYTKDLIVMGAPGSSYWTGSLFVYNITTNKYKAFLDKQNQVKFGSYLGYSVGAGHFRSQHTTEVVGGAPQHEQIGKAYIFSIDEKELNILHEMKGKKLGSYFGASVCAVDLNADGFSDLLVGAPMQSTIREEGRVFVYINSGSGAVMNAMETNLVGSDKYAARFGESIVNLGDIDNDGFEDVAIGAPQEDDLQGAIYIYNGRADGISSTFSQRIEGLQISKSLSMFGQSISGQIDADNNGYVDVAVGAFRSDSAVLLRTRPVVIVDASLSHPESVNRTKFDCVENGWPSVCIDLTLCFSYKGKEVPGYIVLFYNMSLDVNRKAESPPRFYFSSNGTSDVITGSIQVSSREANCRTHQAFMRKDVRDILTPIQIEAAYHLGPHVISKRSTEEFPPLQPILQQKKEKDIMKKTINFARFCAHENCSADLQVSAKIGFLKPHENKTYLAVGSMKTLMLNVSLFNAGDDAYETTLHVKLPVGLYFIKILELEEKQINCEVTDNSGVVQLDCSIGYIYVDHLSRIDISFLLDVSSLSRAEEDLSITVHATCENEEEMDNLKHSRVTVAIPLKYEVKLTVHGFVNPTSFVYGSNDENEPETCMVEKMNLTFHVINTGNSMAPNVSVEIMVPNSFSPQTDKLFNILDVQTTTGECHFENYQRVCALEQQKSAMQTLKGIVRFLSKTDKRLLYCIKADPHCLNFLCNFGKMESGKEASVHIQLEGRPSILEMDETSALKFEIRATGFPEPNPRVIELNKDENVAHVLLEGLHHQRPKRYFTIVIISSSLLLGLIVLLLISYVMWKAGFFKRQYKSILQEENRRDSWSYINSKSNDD
T1 sequence (P26010 whole entry): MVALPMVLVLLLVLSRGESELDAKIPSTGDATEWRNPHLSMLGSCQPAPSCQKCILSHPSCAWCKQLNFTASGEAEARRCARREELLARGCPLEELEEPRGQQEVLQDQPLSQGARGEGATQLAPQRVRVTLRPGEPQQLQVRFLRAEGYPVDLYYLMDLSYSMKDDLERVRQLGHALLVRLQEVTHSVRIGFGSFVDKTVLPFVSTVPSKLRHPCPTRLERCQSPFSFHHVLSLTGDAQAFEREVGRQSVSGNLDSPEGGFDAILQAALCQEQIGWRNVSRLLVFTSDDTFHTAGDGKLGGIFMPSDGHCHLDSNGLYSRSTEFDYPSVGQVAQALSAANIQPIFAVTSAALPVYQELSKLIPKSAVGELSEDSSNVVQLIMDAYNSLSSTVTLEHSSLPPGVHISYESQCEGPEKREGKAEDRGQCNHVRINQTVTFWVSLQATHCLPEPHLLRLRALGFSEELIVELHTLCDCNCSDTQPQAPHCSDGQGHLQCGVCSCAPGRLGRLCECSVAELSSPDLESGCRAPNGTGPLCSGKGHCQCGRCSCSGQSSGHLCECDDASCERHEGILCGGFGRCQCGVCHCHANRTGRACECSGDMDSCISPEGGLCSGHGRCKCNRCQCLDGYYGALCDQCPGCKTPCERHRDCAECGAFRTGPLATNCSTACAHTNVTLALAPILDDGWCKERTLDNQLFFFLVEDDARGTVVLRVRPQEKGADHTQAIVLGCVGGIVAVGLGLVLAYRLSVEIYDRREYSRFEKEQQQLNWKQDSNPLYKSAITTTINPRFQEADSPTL
Protocol: M2 anti-FLAG antibody coated 96-well plates were coated with recombinant FLAG-hMAdCAM-1 contained in Dulbecco PBS. The compounds to be tested were added. Stably transfected K562 cells expressing human alpha4beta7 integrin that had been labeled with […] fluorescein diacetate succinimidyl ester (CFDA-SE) were added to each well and allowed to adhere for 1 h at room temperature. Plates were washed, and then cells were lysed. The plate was read on a 96-well fluorescent plate reader at 485 nm excitation and 530 nm emission.

Row | IC50 [nM] | Structure (SMILES)
1 | 46 | O=C(Nc1ccc(C[C@H](NC(=O)[C@@H]2C3CCC(CC3)N2S(=O)(=O)c2ccccc2)C(=O)O)cc1)c1cc(Cl)nc(Cl)c1 [(2S)-2-{[(3S)-2-(benzenesulfonyl)-2-azabicyclo[2.2.2]octan-3-yl]formamido}-3-{4-[(2,6-dichloropyridine-4-)amido]phenyl}propanoic acid]
2 | 110 | O=C(O)[C@H](Cc1ccc(N2C(=O)c3ccccc3C2=O)cc1)NC(=O)[C@@H]1C2CCC(CC2)N1S(=O)(=O)c1ccccc1
3 | 120 | O=C(Nc1ccc(C[C@H](NC(=O)[C@@H]2C3CCC(CC3)N2S(=O)(=O)c2ccccc2)C(=O)O)cc1)c1ccncc1 [(2S)-2-{[(3S)-2-(benzenesulfonyl)-2-azabicyclo[2.2.2]octan-3-yl]formamido}-3-[4-(pyridine-4-amido)phenyl]propanoic acid]
